Measured values as given in ChEMBL document CHEMBL1152270, “Cobalt-alkyne complexes with imidazoline ligands as estrogenic carriers: synthesis and pharmacological investigations” (J Med Chem, 2008).
Activity calls are given as the source filed them. The calls are words filed in the database; no cut-off is given here.

What was measured:
[1] = system: MCF7; experiment: Antiproliferative activity against human MCF7 cells; format: functional, cell-based
[2] = target: T1, Estrogen receptor (Homo sapiens) (UniProt P03372); experiment: Transactivation of ERalpha in human MCF7-2a cells assessed as luciferase reporter gene expression at 1 uM relative to estradiol; format: cell-based
T1 sequence (whole entry): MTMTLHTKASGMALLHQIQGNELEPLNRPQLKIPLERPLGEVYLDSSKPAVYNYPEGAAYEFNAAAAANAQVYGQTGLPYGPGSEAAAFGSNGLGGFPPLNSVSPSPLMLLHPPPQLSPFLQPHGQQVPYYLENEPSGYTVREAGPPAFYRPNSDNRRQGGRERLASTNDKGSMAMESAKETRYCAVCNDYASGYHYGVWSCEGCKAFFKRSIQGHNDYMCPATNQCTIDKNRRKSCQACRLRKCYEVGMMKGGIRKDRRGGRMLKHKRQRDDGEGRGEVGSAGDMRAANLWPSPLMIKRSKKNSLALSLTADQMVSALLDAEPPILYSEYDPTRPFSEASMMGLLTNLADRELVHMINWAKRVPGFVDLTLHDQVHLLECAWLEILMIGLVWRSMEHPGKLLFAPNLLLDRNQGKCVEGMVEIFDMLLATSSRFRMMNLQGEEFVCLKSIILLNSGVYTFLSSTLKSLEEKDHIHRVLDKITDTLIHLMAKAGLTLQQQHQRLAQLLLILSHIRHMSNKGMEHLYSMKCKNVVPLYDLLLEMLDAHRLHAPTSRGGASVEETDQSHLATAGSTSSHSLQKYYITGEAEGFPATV

[3] = system: MDA-MB-231; experiment: Antiproliferative activity against human MDA-MB-231 cells; format: functional, cell-based
[4] = target: T2, Estrogen receptor (Homo sapiens, UniProt P03372); experiment: Transactivation of ERalpha in human MCF7-2a cells assessed as luciferase reporter gene expression; format: cell-based
T2 sequence (P03372 whole entry): T1 sequence (whole entry)

| Activity [2] | SMILES | Activity [1] | Activity [3] | EC50 [4] |
| --- | --- | --- | --- | --- |
| 13% | C#CCN1C=NC(c2ccc(OC)cc2Cl)C1c1ccc(OC)cc1Cl (stereo unspecified) | inactive | inactive |  |
|  | C#CCN1C=NC(c2ccc(O)cc2Cl)C1c1ccc(O)cc1Cl (stereo unspecified) | inactive | inactive | 10 nM |
